Values joined by “and” are separate entries in the source; they are usually repeats but may differ in a detail not shown here. Equal values may be shown once.
Key:
[1] = Liquid; for viscosity: Falling or rolling sphere viscometry
[2] = refractive index (Na D-line) (dimensionless); conditions: 293.1 K; 101.33 kPa; Liquid; Standard Abbe refractometry

CC(C)CCCCCCCOC(=O)c1ccccc1C(=O)OCCCCCCCC(C)C
[1]
Conditions	mass density	viscosity
273.15 K, 101.33 kPa	980.73 kg/m3 and 980.75 kg/m3	627.6 mPa·s and 664.5 mPa·s
278.15 K, 101.33 kPa	977.12 kg/m3	393.5 mPa·s and 410.8 mPa·s and 410.5 mPa·s
283.15 K, 101.33 kPa	973.48 kg/m3 and 973.49 kg/m3	255.2 mPa·s and 266.8 mPa·s
288.15 K, 101.33 kPa	969.89 kg/m3	170.9 mPa·s and 178.6 mPa·s
293.15 K, 101.33 kPa	966.37 kg/m3 and 966.38 kg/m3 and 966.37 kg/m3	123.5 mPa·s [middle of 5 runs]
293.15 K, 19400 kPa	–	202.4 mPa·s
293.15 K, 39700 kPa	–	335 mPa·s
293.15 K, 59500 kPa	–	534.5 mPa·s
293.15 K, 103600 kPa	–	1435.6 mPa·s
293.15 K, 118200 kPa	–	1981.5 mPa·s
293.15 K, 118900 kPa	–	2033.8 mPa·s
293.15 K, 159600 kPa	–	4719.2 mPa·s
298.15 K, 101.33 kPa	962.83 kg/m3 and 962.84 kg/m3	87.7 mPa·s and 84.1 mPa·s and 88.4 mPa·s
298.15 K, 25400 kPa	–	165.5 mPa·s
298.15 K, 50700 kPa	–	300.2 mPa·s
298.15 K, 75500 kPa	–	525 mPa·s
298.15 K, 100600 kPa	–	904.7 mPa·s
303.15 K, 101.33 kPa	959.31 kg/m3 and 959.29 kg/m3 and 959.3 kg/m3	65 mPa·s [middle of 4 runs]
308.15 K, 101.33 kPa	–	48.9 mPa·s [middle of 4 runs]
313.15 K, 100 kPa	–	37.6 mPa·s and 36.8 mPa·s
313.15 K, 101.33 kPa	952.2 kg/m3 and 952.21 kg/m3	37.5 mPa·s [middle of 4 runs]
313.15 K, 700 kPa	–	38.3 mPa·s
313.15 K, 25000 kPa	–	65.4 mPa·s and 63.9 mPa·s
313.15 K, 25800 kPa	–	66 mPa·s
313.15 K, 50000 kPa	–	109.4 mPa·s and 107 mPa·s
313.15 K, 50600 kPa	–	110.3 mPa·s
313.15 K, 75500 kPa	–	181 mPa·s
313.15 K, 100000 kPa	–	290 mPa·s and 271 mPa·s and 273 mPa·s
313.15 K, 100300 kPa	–	291.6 mPa·s
313.15 K, 125100 kPa	–	463.2 mPa·s
313.15 K, 150400 kPa	–	732.6 mPa·s
313.15 K, 175800 kPa	–	1143.6 mPa·s
313.15 K, 197600 kPa	–	1680 mPa·s
313.15 K, 200000 kPa	–	1580 mPa·s and 1665 mPa·s and 1530 mPa·s
313.15 K, 227900 kPa	–	2671.7 mPa·s
313.15 K, 252000 kPa	–	3750 mPa·s and 3932.3 mPa·s
313.15 K, 300000 kPa	–	8110 mPa·s and 7270 mPa·s
313.15 K, 400000 kPa	–	36300 mPa·s and 33700 mPa·s
313.15 K, 500000 kPa	–	168000 mPa·s and 158000 mPa·s
313.15 K, 600000 kPa	–	782000 mPa·s and 694000 mPa·s
313.15 K, 700000 kPa	–	3820000 mPa·s and 3410000 mPa·s
313.15 K, 800000 kPa	–	2.36e+07 mPa·s and 1.98e+07 mPa·s
323.15 K, 101.33 kPa	945.12 kg/m3 and 945.13 kg/m3	23 mPa·s and 23.7 mPa·s
333.15 K, 101.33 kPa	938.05 kg/m3 and 938.07 kg/m3	15.9 mPa·s [middle of 4 runs]
338.15 K, 100 kPa	–	13.2 mPa·s and 13.08 mPa·s
338.15 K, 101.33 kPa	–	13.3 mPa·s and 13.2 mPa·s and 13 mPa·s
338.15 K, 500 kPa	–	13.3 mPa·s
338.15 K, 25000 kPa	–	20.2 mPa·s
338.15 K, 30500 kPa	–	22.7 mPa·s
338.15 K, 50000 kPa	–	30.7 mPa·s and 31.1 mPa·s
338.15 K, 60700 kPa	–	37.8 mPa·s
338.15 K, 90600 kPa	–	60.9 mPa·s
338.15 K, 99500 kPa	–	70.9 mPa·s
338.15 K, 100000 kPa	–	67.7 mPa·s and 69.4 mPa·s
338.15 K, 120500 kPa	–	96.3 mPa·s
338.15 K, 150100 kPa	–	149.6 mPa·s
338.15 K, 180400 kPa	–	229.2 mPa·s
338.15 K, 200000 kPa	–	291 mPa·s and 286 mPa·s and 299 mPa·s
338.15 K, 200600 kPa	–	307.8 mPa·s
338.15 K, 250700 kPa	–	614.9 mPa·s
338.15 K, 275600 kPa	–	856.5 mPa·s
338.15 K, 300000 kPa	–	1131 mPa·s [middle of 4 runs]
338.15 K, 301000 kPa	–	1203.7 mPa·s
338.15 K, 321800 kPa	–	1571 mPa·s
338.15 K, 352700 kPa	–	2381 mPa·s
338.15 K, 370500 kPa	–	2998.7 mPa·s
338.15 K, 394000 kPa	–	3890 mPa·s
338.15 K, 394400 kPa	–	4005.5 mPa·s
338.15 K, 500000 kPa	–	14200 mPa·s and 13100 mPa·s
338.15 K, 1000000 kPa	–	7420000 mPa·s and 6141000 mPa·s
343.15 K, 101.33 kPa	930.99 kg/m3 and 931.01 kg/m3	11.2 mPa·s [middle of 4 runs]
348.15 K, 101.33 kPa	–	9.63 mPa·s and 9.65 mPa·s
348.15 K, 11100 kPa	–	11.7 mPa·s
348.15 K, 26500 kPa	–	15.1 mPa·s
348.15 K, 52600 kPa	–	22.9 mPa·s
348.15 K, 78900 kPa	–	33.7 mPa·s
348.15 K, 81000 kPa	–	35 mPa·s
348.15 K, 105700 kPa	–	49.67 mPa·s
348.15 K, 124200 kPa	–	65.18 mPa·s
348.15 K, 125700 kPa	–	66 mPa·s
348.15 K, 149800 kPa	–	92 mPa·s
348.15 K, 175700 kPa	–	130.3 mPa·s
348.15 K, 202300 kPa	–	186.52 mPa·s
348.15 K, 225400 kPa	–	250 mPa·s
348.15 K, 274700 kPa	–	467.3 mPa·s
348.15 K, 275700 kPa	–	472.3 mPa·s
348.15 K, 324900 kPa	–	866.8 mPa·s
348.15 K, 372500 kPa	–	1541.5 mPa·s
353.15 K, 101.33 kPa	923.95 kg/m3 and 923.98 kg/m3 and 923.97 kg/m3	8.12 mPa·s and 8.35 mPa·s
363.15 K, 101.33 kPa	916.91 kg/m3 and 916.94 kg/m3	–
373.15 K, 100 kPa	–	4.67 mPa·s and 4.7 mPa·s
373.15 K, 25000 kPa	–	6.73 mPa·s and 6.86 mPa·s
373.15 K, 50000 kPa	–	9.66 mPa·s and 9.77 mPa·s
373.15 K, 100000 kPa	–	18 mPa·s and 18.5 mPa·s
373.15 K, 200000 kPa	–	56.6 mPa·s and 57.8 mPa·s
373.15 K, 300000 kPa	–	163 mPa·s and 166 mPa·s and 165 mPa·s
373.15 K, 400000 kPa	–	453 mPa·s [middle of 4 runs]

Conditions	mass density [kg/m3]
[1], 293.1 K, 101.33 kPa, Vibrating tube method	967.6

Conditions	refractive index
[2]	1.4849
